{"source": "paper PMC5513037", "about": "“Examining the influence of specificity ligands and ATP-competitive ligands on the overall effectiveness of bivalent kinase inhibitors” (Proteome Science, 2017)", "experiment_in_all_cases": "KAM-matrix competition in K562 lysate;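 for 0.001 uM KAM: median log10 fold change of treatment over DMSO control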;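 for 0.01 uM KAM: median log10 fold change of treatment over DMSO control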;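 for 0.1 uM KAM: median log10 fold change of treatment over DMSO control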;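 for 1 uM KAM: median log10 fold change of treatment over DMSO control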;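 for 10 uM KAM: median log10 fold change of treatment over DMSO control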", "type_in_all_cases": "binding", "key": {"DAPK1": {"target": "T1, DAPK1 (Homo sapiens, UniProt P53355)", "T1 construct": "endogenous in cells; host or cells: K562", "T1 sequence (P53355 whole entry)": "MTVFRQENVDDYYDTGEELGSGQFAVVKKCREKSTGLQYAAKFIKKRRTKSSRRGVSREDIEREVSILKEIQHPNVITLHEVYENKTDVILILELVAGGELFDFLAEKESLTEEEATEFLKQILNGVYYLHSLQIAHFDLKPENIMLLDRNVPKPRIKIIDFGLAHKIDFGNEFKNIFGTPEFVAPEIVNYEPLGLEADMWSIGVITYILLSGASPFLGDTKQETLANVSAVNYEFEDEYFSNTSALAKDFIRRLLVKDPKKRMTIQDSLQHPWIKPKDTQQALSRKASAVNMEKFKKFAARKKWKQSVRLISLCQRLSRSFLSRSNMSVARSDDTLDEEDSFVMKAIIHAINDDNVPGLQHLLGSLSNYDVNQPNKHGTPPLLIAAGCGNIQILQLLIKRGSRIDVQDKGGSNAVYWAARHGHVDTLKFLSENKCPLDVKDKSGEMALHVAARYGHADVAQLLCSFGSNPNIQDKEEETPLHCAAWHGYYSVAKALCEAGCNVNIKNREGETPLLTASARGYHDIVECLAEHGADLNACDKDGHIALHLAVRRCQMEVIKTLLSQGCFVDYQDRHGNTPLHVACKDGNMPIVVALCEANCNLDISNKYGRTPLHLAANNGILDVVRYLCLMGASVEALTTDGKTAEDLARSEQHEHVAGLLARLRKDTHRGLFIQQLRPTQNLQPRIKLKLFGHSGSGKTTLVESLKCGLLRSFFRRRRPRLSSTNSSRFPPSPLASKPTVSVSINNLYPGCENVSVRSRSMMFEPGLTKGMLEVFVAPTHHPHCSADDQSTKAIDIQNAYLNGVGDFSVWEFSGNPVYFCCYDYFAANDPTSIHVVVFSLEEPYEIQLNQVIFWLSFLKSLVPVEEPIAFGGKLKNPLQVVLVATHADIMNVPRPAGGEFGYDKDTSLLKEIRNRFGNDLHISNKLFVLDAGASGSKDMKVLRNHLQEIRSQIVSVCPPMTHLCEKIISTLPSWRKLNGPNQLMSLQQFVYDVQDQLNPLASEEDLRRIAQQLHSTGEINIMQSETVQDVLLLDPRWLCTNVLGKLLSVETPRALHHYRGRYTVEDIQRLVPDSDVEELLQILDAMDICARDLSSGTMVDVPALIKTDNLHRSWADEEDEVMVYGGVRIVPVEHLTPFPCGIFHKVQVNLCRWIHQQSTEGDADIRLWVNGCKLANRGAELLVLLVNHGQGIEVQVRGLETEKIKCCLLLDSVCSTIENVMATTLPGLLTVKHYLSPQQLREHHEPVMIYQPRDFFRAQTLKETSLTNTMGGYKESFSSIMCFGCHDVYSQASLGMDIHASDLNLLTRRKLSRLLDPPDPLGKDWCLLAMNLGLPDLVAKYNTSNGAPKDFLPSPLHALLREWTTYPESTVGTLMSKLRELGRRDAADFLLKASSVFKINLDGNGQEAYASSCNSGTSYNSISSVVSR", "procedure": "(§1) Supplement 12953_2017_125_MOESM1_ESM.zip/MS_Supp Info.xlsx, sheet \"KAM\" | column: 10 uM KAM; 1 uM KAM; 0.1 uM KAM; 0.01 uM KAM; 0.001 uM KAM; RB50"}, "HIPK3": {"target": "T2, HIPK3 (Homo sapiens, UniProt Q9H422)", "T2 construct": "endogenous in cells; host or cells: K562 cells (combined S0.8 and P0.8 lysate)", "procedure": "as §1"}, "MASTL": {"target": "T3, MASTL (Homo sapiens, UniProt Q96GX5)", "T3 construct": "endogenous in cells; host or cells: K562 cell lysate", "T3 sequence (Q96GX5 1-879)": "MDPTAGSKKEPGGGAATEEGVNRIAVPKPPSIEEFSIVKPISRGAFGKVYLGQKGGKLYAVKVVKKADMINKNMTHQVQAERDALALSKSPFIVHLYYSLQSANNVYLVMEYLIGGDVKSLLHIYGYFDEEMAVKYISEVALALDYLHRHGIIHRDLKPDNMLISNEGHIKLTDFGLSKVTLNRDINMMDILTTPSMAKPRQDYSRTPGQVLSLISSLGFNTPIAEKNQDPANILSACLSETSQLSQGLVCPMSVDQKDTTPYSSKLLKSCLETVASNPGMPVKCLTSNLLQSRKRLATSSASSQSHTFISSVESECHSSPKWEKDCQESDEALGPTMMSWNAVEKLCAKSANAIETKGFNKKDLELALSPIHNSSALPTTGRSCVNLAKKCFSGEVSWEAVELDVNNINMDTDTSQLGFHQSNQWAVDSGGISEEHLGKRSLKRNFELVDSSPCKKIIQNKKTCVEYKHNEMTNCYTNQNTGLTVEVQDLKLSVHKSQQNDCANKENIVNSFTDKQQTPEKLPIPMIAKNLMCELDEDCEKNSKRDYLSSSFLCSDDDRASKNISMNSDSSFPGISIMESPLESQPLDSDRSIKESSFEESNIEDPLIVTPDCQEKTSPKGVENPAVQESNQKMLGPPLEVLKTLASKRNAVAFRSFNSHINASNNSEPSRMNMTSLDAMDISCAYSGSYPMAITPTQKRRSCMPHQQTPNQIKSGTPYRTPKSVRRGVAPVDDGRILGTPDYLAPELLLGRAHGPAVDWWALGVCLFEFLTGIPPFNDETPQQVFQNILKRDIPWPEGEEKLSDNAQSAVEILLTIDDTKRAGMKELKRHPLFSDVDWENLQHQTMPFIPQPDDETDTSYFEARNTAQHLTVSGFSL", "procedure": "as §1"}, "PLK4": {"target": "T4, PLK4 (Homo sapiens, UniProt O00444)", "T4 construct": "endogenous in cells; host or cells: K562", "T4 sequence (O00444 1-970)": "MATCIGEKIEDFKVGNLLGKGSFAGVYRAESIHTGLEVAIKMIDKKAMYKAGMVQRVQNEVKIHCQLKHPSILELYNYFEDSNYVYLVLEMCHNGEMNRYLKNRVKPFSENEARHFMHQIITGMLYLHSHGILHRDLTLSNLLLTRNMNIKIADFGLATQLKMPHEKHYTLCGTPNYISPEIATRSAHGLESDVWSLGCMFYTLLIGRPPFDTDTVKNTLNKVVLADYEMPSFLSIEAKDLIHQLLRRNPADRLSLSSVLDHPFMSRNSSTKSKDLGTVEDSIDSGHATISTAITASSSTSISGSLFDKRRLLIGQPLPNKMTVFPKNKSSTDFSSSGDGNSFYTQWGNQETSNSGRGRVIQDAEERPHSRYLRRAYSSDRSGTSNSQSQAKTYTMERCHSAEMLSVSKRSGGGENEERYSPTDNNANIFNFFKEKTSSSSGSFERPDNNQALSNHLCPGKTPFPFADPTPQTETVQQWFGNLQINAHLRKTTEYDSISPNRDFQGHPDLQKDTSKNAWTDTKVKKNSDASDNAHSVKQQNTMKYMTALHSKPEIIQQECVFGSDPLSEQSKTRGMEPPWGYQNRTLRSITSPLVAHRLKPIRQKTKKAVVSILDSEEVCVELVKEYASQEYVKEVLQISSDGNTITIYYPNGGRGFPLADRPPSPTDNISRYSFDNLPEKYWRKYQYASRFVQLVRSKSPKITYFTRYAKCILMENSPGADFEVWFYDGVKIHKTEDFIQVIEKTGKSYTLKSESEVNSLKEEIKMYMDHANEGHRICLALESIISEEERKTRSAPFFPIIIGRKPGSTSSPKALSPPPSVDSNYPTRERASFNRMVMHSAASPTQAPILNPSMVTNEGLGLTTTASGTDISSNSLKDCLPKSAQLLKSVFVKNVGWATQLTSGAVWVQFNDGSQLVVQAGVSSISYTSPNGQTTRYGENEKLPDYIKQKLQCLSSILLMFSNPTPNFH", "procedure": "as §1"}, "WEE1": {"target": "T5, WEE1 (Homo sapiens, UniProt P30291)", "T5 construct": "endogenous in cells; host or cells: K562", "T5 sequence (P30291 whole entry)": "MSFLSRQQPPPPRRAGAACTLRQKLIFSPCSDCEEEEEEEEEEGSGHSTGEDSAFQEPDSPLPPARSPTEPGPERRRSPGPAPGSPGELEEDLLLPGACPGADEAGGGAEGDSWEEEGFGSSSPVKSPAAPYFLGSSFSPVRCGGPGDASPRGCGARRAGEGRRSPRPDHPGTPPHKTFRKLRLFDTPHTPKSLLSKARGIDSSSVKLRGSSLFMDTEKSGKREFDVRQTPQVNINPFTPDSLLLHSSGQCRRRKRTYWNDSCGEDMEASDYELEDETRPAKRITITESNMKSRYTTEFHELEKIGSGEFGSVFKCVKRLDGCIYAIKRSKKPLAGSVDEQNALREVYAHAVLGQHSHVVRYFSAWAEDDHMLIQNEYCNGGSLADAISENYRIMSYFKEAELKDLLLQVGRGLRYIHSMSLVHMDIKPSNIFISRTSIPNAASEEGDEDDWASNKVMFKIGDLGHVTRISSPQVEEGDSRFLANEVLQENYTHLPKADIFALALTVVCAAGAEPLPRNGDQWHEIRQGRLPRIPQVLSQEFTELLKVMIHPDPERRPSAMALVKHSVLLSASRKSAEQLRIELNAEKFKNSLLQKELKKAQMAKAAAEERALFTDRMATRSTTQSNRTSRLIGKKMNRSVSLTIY", "procedure": "as §1"}, "WNK1": {"target": "T6, WNK1 (Homo sapiens, UniProt Q9H4A3)", "T6 construct": "endogenous in cells; host or cells: K562", "T6 sequence (Q9H4A3 whole entry)": "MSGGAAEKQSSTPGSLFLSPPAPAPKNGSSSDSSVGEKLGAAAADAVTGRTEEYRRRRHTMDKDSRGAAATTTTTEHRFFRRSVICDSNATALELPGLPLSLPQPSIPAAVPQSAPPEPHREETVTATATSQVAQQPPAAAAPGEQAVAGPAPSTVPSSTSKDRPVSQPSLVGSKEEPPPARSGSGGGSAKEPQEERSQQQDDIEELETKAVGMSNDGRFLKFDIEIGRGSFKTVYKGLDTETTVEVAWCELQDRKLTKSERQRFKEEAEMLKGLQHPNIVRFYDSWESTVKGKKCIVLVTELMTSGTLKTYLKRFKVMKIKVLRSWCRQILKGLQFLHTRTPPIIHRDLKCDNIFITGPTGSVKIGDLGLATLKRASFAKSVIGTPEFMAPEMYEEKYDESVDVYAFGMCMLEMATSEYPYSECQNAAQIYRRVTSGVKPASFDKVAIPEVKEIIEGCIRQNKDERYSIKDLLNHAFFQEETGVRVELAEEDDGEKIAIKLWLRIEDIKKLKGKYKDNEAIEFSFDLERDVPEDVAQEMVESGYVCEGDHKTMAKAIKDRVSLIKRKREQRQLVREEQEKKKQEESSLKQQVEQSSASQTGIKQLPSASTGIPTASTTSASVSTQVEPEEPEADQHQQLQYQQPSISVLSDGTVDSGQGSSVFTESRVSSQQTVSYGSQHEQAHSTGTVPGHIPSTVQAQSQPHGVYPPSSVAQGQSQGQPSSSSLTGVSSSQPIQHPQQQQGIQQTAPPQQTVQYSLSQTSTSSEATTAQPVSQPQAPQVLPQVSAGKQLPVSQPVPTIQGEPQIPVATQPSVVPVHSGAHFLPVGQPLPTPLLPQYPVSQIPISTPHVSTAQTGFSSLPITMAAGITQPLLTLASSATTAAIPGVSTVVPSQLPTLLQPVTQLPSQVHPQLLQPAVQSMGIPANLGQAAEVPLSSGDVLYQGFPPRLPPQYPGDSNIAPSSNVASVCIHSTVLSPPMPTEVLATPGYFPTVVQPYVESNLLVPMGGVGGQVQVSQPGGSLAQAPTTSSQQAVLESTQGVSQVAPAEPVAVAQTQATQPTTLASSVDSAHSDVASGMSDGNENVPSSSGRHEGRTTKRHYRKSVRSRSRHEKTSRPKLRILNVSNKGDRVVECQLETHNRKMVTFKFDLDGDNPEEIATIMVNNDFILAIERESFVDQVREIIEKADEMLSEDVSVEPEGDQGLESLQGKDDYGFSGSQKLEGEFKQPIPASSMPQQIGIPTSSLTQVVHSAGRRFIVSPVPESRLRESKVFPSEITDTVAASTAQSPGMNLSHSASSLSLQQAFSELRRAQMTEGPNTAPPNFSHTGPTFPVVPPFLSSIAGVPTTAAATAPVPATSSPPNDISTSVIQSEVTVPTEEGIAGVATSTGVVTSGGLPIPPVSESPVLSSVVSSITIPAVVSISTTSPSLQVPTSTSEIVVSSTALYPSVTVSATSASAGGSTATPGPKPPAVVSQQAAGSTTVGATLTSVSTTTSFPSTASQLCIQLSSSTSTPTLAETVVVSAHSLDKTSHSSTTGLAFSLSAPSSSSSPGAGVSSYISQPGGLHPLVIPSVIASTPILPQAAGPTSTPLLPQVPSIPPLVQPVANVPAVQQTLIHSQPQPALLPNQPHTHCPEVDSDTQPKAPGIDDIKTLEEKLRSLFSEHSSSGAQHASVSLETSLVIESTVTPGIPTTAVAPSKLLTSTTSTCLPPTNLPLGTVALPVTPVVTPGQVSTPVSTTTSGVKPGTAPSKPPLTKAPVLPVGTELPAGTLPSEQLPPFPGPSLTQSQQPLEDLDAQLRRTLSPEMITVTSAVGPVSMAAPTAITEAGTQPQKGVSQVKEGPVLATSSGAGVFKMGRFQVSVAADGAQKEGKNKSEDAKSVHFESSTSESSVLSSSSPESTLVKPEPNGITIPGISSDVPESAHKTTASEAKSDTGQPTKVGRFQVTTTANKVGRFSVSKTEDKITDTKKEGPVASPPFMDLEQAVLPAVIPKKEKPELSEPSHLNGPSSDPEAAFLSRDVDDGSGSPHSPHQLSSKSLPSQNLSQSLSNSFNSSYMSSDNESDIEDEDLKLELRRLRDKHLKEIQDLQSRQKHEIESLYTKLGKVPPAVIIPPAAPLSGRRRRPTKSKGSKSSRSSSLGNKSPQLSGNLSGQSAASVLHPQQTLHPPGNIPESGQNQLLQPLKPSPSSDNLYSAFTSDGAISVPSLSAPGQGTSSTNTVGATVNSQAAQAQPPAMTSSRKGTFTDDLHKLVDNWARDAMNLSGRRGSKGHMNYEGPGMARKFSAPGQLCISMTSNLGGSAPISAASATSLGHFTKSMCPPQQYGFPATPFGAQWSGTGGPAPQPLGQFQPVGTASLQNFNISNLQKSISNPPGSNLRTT", "procedure": "as §1"}, "[1]": {"conditions": "KAM 0.001-10 uM, read-out: RB50 (the source's name)"}, "[2]": {"conditions": "read-out: RB50 (the source's name)"}}}
{"smiles": "N#CCc1ccc(Nc2nc(NCCCN)cc(Nc3cc(C4CC4)[nH]n3)n2)cc1", "note": "[KAM]", "values": [{"measurement": "IC50", "setting": "DAPK1; [1]", "value": "> 10", "unit": "µM"}, {"measurement": "0.001 uM KAM", "setting": "DAPK1; relative to 0 uM KAM = 0", "value": -0.04615}, {"measurement": "0.01 uM KAM", "setting": "DAPK1; relative to 0 uM KAM = 0", "value": 0.02037}, {"measurement": "0.1 uM KAM", "setting": "DAPK1; relative to 0 uM KAM = 0", "value": -0.07451}, {"measurement": "1 uM KAM", "setting": "DAPK1; relative to 0 uM KAM = 0", "value": -0.06277}, {"measurement": "10 uM KAM", "setting": "DAPK1; relative to 0 uM KAM = 0", "value": -0.09328}, {"measurement": "IC50", "setting": "HIPK3; [1]", "value": "> 10", "unit": "µM"}, {"measurement": "0.001 uM KAM", "setting": "HIPK3; relative to 0 uM KAM = 0", "value": -0.01362}, {"measurement": "0.01 uM KAM", "setting": "HIPK3; relative to 0 uM KAM = 0", "value": -0.04323}, {"measurement": "0.1 uM KAM", "setting": "HIPK3; relative to 0 uM KAM = 0", "value": -0.04392}, {"measurement": "1 uM KAM", "setting": "HIPK3; relative to 0 uM KAM = 0", "value": -0.1209}, {"measurement": "10 uM KAM", "setting": "HIPK3; relative to 0 uM KAM = 0", "value": -0.16}, {"measurement": "median Log10 fold change", "setting": "MASTL; 0.001 uM KAM", "value": 0.009734}, {"measurement": "median Log10 fold change", "setting": "MASTL; 0.01 uM KAM", "value": -0.004391}, {"measurement": "median Log10 fold change", "setting": "MASTL; 0.1 uM KAM", "value": -0.2197}, {"measurement": "median Log10 fold change", "setting": "MASTL; 1 uM KAM", "value": -0.3171}, {"measurement": "median Log10 fold change", "setting": "MASTL; 10 uM KAM", "value": -0.3645}, {"measurement": "IC50", "setting": "MASTL; [2]", "value": 0.948, "unit": "µM"}, {"measurement": "median Log10 fold change", "setting": "PLK4; 0.001 uM KAM", "value": -0.0157}, {"measurement": "median Log10 fold change", "setting": "PLK4; 0.01 uM KAM", "value": 0.006981}, {"measurement": "median Log10 fold change", "setting": "PLK4; 0.1 uM KAM", "value": -0.1724}, {"measurement": "median Log10 fold change", "setting": "PLK4; 1 uM KAM", "value": -0.3044}, {"measurement": "median Log10 fold change", "setting": "PLK4; 10 uM KAM", "value": -0.3267}, {"measurement": "IC50", "setting": "PLK4; [2]", "value": 1.4, "unit": "µM"}, {"measurement": "median Log10 fold change", "setting": "WEE1; 0.001 uM KAM", "value": -0.01698}, {"measurement": "median Log10 fold change", "setting": "WEE1; 0.01 uM KAM", "value": -0.006292}, {"measurement": "median Log10 fold change", "setting": "WEE1; 0.1 uM KAM", "value": -0.1327}, {"measurement": "median Log10 fold change", "setting": "WEE1; 1 uM KAM", "value": -0.2838}, {"measurement": "median Log10 fold change", "setting": "WEE1; 10 uM KAM", "value": -0.4489}, {"measurement": "IC50", "setting": "WEE1; [2]", "value": 1.32, "unit": "µM"}, {"measurement": "IC50", "setting": "WNK1; [1]", "value": "> 10", "unit": "µM"}, {"measurement": "0.001 uM KAM", "setting": "WNK1; relative to 0 uM KAM = 0", "value": -0.03013}, {"measurement": "0.01 uM KAM", "setting": "WNK1; relative to 0 uM KAM = 0", "value": -0.03259}, {"measurement": "0.1 uM KAM", "setting": "WNK1; relative to 0 uM KAM = 0", "value": -0.03066}, {"measurement": "1 uM KAM", "setting": "WNK1; relative to 0 uM KAM = 0", "value": 0.00603}, {"measurement": "10 uM KAM", "setting": "WNK1; relative to 0 uM KAM = 0", "value": -0.05865}]}
